“And” between values parts separate entries of the source, which are not always exact repeats. Equal entries are not always repeated. Numbers after ± are expanded uncertainties.
Conditions: 313.15 K; Liquid

Row | Compound | vapor or sublimation pressure
1 | c1ccccc1 [benzene] | 24.39 ± 0.18 kPa and 24.38 ± 0.18 kPa and 24.4 ± 0.18 kPa
2 | CC(C)OC(C)C [diisopropyl ether] | 37.1 ± 0.27 kPa and 37.14 ± 0.27 kPa and 37.12 ± 0.27 kPa
3 | CCC(C)O (stereo not drawn) [butan-2-ol] | 6.062 ± 0.069 kPa [middle of 4 runs]

From the NIST ThermoML archive (doi:10.1021/je0502896)
